From patent US11376324B2, “Sting activating nanovaccine for immunotherapy” (The Board of Regents of the University of Texas System, priority 2016, dated 2022)

Experiments:
[1] = Histology of major organs (H&E); assay type: in vivo, C57BL/6 mice; settings: repeated injections, 10 μg OVA plus 150 μg
Procedure: FIG. 14. Histology analyses of major organs for safety assessment of PC7A nanovaccine. Representative H&E sections of the main organs from C57BL/6 mice after repeated injections of 10 μg OVA plus 150 μg PC7A NP or the same dose of Poly(I:C). Mice were sacrificed 24 h after the second injection (n=5 for each group).

[2] = tested on: IRF7 and CXCL10; assay: q-RT-PCR of interferon-stimulated genes at injection site; assay type: in vivo, mice; settings: local tissue after s.c. injection
Source text: Samples were run in triplicate.

[3] = tested on: B16-OVA tumor; assay: B16-OVA melanoma tumor therapy; assay type: in vivo, C57BL/6 mice; settings: peptide 0.5 μg, s.c. day 5 and booster 5 days later
Procedure: Six to eight week old mice (n=10 for each group) were injected subcutaneously with B16-OVA or B16F10 melanoma cells (1.5×10^5), or TC-1 cells (1.5×10^5), MC38 cells (5×10^5) into the right flank of mice. […] Or at day 3, 6, 9 and 12, some groups were i.p. injected with 200 μg checkpoint inhibitors (anti-mPD-1, BioXcell, BE0146) for comparison or synergy evaluation. The tumor growth was subsequently measured twice a week using a digital caliper and calculated as 0.5×length×width^2 by blinded investigators. Mice were killed when tumor […] reached 1500 mm^3, the end point of tumor detection is 2-fold of the longest survival time (LST) of control group, so around 40 days for melanoma tumor model, and around 60 days for TC-1 and MC38 tumor models.

## Poly(I:C)
[1]
  histology of major organs (liver, spleen, kidney, heart): ballooned hepatocytes indicative of steatohepatitis
[2]
  IRF7 and CXCL10 expression, 2 to 8 h: higher response in IRF7 and CXCL10 expressions in the early time points from 2 to 8 h than PC7A NP

## SIINFEKLTEWTSSNVMEERKIKV [OVA257-280]
[3]
  tumor growth inhibition / survival benefit (in words): did not offer any significant tumor growth inhibition or survival benefit over the PBS control
